According to US20180200257A1, “METHODS FOR THE TREATMENT OF INFLAMMATORY DISORDERS” (Galapagos NV, priority 2015, published 2018):

Test system: subjects with moderately to severely active RA who have an inadequate response to methotrexate (MTX)
Assay: Study 1 (add-on to MTX) - ACR responses (ACR20/50/70)
Type: in vivo, human
Description: The terms “ACR20”, “ACR50” and “ACR70” as used herein are scores which indicate how much a patient's rheumatoid arthritis has improved according to criteria set out by the American College of Rheumatology (ACR). The ACR score represents a percentage. An ACR20 score means that a person's RA has improved by 20%, an ACR50 score means it has improved by 50%, and an ACR70 score means it has improved by 70%. Specifically, to qualify for an ACR20 score, a person with RA must have at least 20% fewer tender joints and at least 20% fewer swollen joints. In addition the patient must show a 20% improvement in at least three of the following five areas: the person's overall (global) assessment of his or her own RA, the physician's global assessment of the person's RA, the person's assessment of his or her own pain, the person's assessment of his or her own physical functioning, and the results of an erythrocyte sedimentation rate or C-reactive protein (CRP) blood test (both of which test for inflammation). ACR50 and ACR70 scores use the same criteria but require 50% and 70% improvement, respectively, (Felson et al., 1993). In the data presented herein the CRP blood test is used.
Double-blind, placebo-controlled add on study in subjects with moderately to severely active RA who have an inadequate response to methotrexate (MTX) (oral or parenteral).
595 subjects randomized to one of 6 dose regimens of Compound 1 (dosed as [Compound 1:HCl:3H2O]) (3 dose levels administered either once or twice daily) or placebo on top of each subject's stable dose of MTX.
Compound 1 (dosed as [Compound 1:HCl:3H2O]) is dosed for twelve weeks once daily (q.d.) (50 mg, 100 mg or 200 mg) or twice daily (b.i.d.) (25 mg, 50 mg or 100 mg); or placebo.
At Week 12, the subjects on placebo who have not achieved 20% improvement in swollen joint count (SJC66) and tender joint count (TJC68) are re-randomized automatically to receive Compound 1 (dosed as a [Compound 1:HCl:3H2O]) either at 100 mg q.d. or 50 mg b.i.d. doses in a blinded fashion; subjects on 50 mg q.d. who have not achieved 20% improvement in SJC66 and TJC68 will be assigned to 100 mg q.d. and subjects on 25 mg b.i.d. that have not achieved a 20% improvement in SJC66 and TJC68 will be assigned to 50 mg b.i.d. Subjects who switch treatment at week 12 are handled as if they discontinued at week 12 for the purpose of statistical analysis, whereas subjects in the other groups will maintain their randomized treatment until Week 24.
The American College of Rheumatology (ACR) composite score, which evaluates clinical improvement relative to an initial assessment, is a commonly accepted efficacy end point for clinical trials in patients with rheumatoid arthritis. The ACR score correspond to a percentage improvement in pre-set parameters, and therefore measures the evolution of the disease in a patient. For example, ACR20 denotes at least 20% improvement in tender and swollen joint counts and in three of the following end points: global assessment by the patient, global assessment by the doctor, C reactive protein (CRP), patient's pain Visual Analogue Scale and Health Assessment Questionnaire Score. The number of swollen joints, ESR and CRP correlate with radiographic progression of joint damage, whereas tender joint counts, as well as global assessments by doctors and patients, and patients' reports of pain, are sensitive to change in clinical outcomes. Physical function, as assessed by the Health Assessment Questionnaire Score, is a potent predictor of the risk of disability in rheumatoid arthritis (Felson and American College of Rheumatology Committee to Reevaluate Improvement Criteria, 2007; Felson et al., 1993).
In particular, the list of parameters used to assess ACR score can be found in the Table XCVI below and the results of the ACR responses at week 12 via either NRI or LOCF are shown in the tables below. The Hommel-corrected p-value for the pairwise comparisons of each group with placebo is shown. […]

[1] = 2 × 25 mg b.i.d., week 2, 12 weeks results
[2] = 2 × 25 mg b.i.d., week 2, 24 weeks results
[3] = 2 × 25 mg b.i.d., week 4, 12 weeks results
[4] = 2 × 25 mg b.i.d., week 4, 24 weeks results
[5] = 2 × 25 mg b.i.d., week 8, 12 weeks results
[6] = 2 × 25 mg b.i.d., week 8, 24 weeks results
[7] = 2 × 25 mg b.i.d., week 12, 12 weeks results
[8] = 2 × 25 mg b.i.d., week 12, 24 weeks results
[9] = 2 × 25 mg b.i.d., week 16, 24 weeks results
[10] = 2 × 25 mg b.i.d., week 20, 24 weeks results
[11] = 2 × 25 mg b.i.d., week 24, 24 weeks results
[12] = 2 × 25 mg b.i.d., at week 1, 12 weeks results
[13] = 2 × 25 mg b.i.d., at week 1, 24 weeks results
[14] = 2 × 50 mg b.i.d., week 2, 12 weeks results
[15] = 2 × 50 mg b.i.d., week 2, 24 weeks results
[16] = 2 × 50 mg b.i.d., week 4, 12 weeks results
[17] = 2 × 50 mg b.i.d., week 4, 24 weeks results
[18] = 2 × 50 mg b.i.d., week 8, 12 weeks results
[19] = 2 × 50 mg b.i.d., week 8, 24 weeks results

Structure (SMILES): O=C(Nc1nc2cccc(-c3ccc(CN4CCS(=O)(=O)CC4)cc3)n2n1)C1CC1 [Compound 1, cyclopropanecarboxylic acid {5-[4-(1,1-dioxo-thiomorpholin-4-ylmethyl)-phenyl]-[1,2,4]triazolo[1,5-a]pyridin-2-yl}-amide]
- ACR70 (NRI) (200 mg q.d., week 8, 12 weeks results): 18.6%
- ACR20 (LOCF) [1]: 27.9%
- ACR20 (NRI) [1]: 29.1%
- ACR50 (LOCF) [1]: 7.0%
- ACR50 (NRI) [1]: 7.0%
- ACR70 (LOCF) [1]: 2.3%
- ACR70 (NRI) [1]: 2.3%
- ACR20 (LOCF) [2]: 29.1%
- ACR20 (NRI) [2]: 29.1%
- ACR50 (LOCF) [2]: 7.0%
- ACR50 (NRI) [2]: 7.0%
- ACR70 (LOCF) [2]: 2.3%
- ACR70 (NRI) [2]: 2.3%
- ACR20 (LOCF) [3]: 44.2%
- ACR20 (NRI) [3]: 45.3%
- ACR50 (LOCF) [3]: 16.3%
- ACR50 (NRI) [3]: 15.1%
- ACR70 (LOCF) [3]: 5.8%
- ACR70 (NRI) [3]: 5.8%
- ACR20 (LOCF) [4]: 46.5%
- ACR20 (NRI) [4]: 45.3%
- ACR50 (LOCF) [4]: 16.3%
- ACR50 (NRI) [4]: 15.1%
- ACR70 (LOCF) [4]: 5.8%
- ACR70 (NRI) [4]: 5.8%
- ACR20 (LOCF) [5]: 58.1%
- ACR20 (NRI) [5]: 58.1%
- ACR50 (LOCF) [5]: 25.6%
- ACR50 (NRI) [5]: 25.6%
- ACR70 (LOCF) [5]: 8.1%
- ACR70 (NRI) [5]: 9.3%
- ACR20 (LOCF) [6]: 59.3%
- ACR20 (NRI) [6]: 58.1%
- ACR50 (LOCF) [6]: 25.6%
- ACR50 (NRI) [6]: 25.6%
- ACR70 (LOCF) [6]: 9.3%
- ACR70 (NRI) [6]: 9.3%
- ACR20 (LOCF) [7]: 58.1%
- ACR20 (NRI) [7]: 57.0%
- ACR50 (LOCF) [7]: 29.1%
- ACR50 (NRI) [7]: 27.9%
- ACR70 (LOCF) [7]: 14.0%
- ACR70 (NRI) [7]: 14.0%
- ACR20 (LOCF) [8]: 59.3%
- ACR20 (NRI) [8]: 57.0%
- ACR50 (LOCF) [8]: 29.1%
- ACR50 (NRI) [8]: 27.9%
- ACR70 (LOCF) [8]: 14.0%
- ACR70 (NRI) [8]: 14.0%
- ACR20 (LOCF) [9]: 55.8%
- ACR20 (NRI) [9]: 52.3%
- ACR50 (LOCF) [9]: 31.4%
- ACR70 (LOCF) [9]: 10.5%
- ACR20 (LOCF) [10]: 58.1%
- ACR20 (NRI) [10]: 52.3%
- ACR50 (LOCF) [10]: 41.9%
- ACR70 (LOCF) [10]: 11.6%
- ACR20 (LOCF) [11]: 62.8%
- ACR20 (NRI) [11]: 55.8%
- ACR50 (LOCF) [11]: 38.4%
- ACR70 (LOCF) [11]: 22.1%
- ACR20 (LOCF) [12]: 17.4%
- ACR20 (NRI) [12]: 17.4%
- ACR50 (LOCF) [12]: 2.3%
- ACR50 (NRI) [12]: 3.5%
- ACR70 (LOCF) [12]: 1.2%
- ACR70 (NRI) [12]: 1.2%
- ACR20 (LOCF) [13]: 17.4%
- ACR20 (NRI) [13]: 17.4%
- ACR50 (LOCF) [13]: 3.5%
- ACR50 (NRI) [13]: 3.5%
- ACR70 (LOCF) [13]: 2.4%
- ACR70 (NRI) [13]: 1.2%
- ACR20 (LOCF) [14]: 40.0%
- ACR20 (NRI) [14]: 41.2%
- ACR50 (LOCF) [14]: 11.8%
- ACR50 (NRI) [14]: 11.8%
- ACR70 (LOCF) [14]: 5.9%
- ACR70 (NRI) [14]: 5.9%
- ACR20 (LOCF) [15]: 41.2%
- ACR20 (NRI) [15]: 41.2%
- ACR50 (LOCF) [15]: 11.8%
- ACR50 (NRI) [15]: 11.8%
- ACR70 (LOCF) [15]: 5.9%
- ACR70 (NRI) [15]: 5.9%
- ACR20 (LOCF) [16]: 45.9%
- ACR20 (NRI) [16]: 44.7%
- ACR50 (LOCF) [16]: 20.0%
- ACR50 (NRI) [16]: 17.6%
- ACR70 (LOCF) [16]: 9.4%
- ACR70 (NRI) [16]: 9.4%
- ACR20 (LOCF) [17]: 47.1%
- ACR20 (NRI) [17]: 45.3%
- ACR50 (LOCF) [17]: 20.0%
- ACR50 (NRI) [17]: 17.6%
- ACR70 (LOCF) [17]: 9.4%
- ACR70 (NRI) [17]: 9.4%
- ACR20 (LOCF) [18]: 55.3%
- ACR20 (NRI) [18]: 54.1%
- ACR50 (LOCF) [18]: 32.9%
- ACR50 (NRI) [18]: 32.9%
- ACR70 (LOCF) [18]: 14.1%
- ACR70 (NRI) [18]: 14.1%
- ACR20 (LOCF) [19]: 55.3%
- ACR20 (NRI) [19]: 54.1%
- ACR50 (LOCF) [19]: 32.9%
- ACR50 (NRI) [19]: 32.9%
- ACR70 (LOCF) [19]: 14.1%
